In PubChem BioAssay (NCI):
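A five-concentration, 48-hour dose response in 96-well plates underlies each endpoint, interpolated linearly between surrounding concentrations. TGI is the concentration that stops growth completely.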

How the values were obtained:
Assay in all cases: NCI tumour cell line growth inhibition, 48 h
[1] = system: MDA-MB-435
[2] = system: RXF 393 renal
[3] = system: MCF7 breast
[4] = system: SNB-75 CNS
[5] = system: SF-268 CNS
[6] = system: CCRF-CEM leukemia
[7] = system: MDA-N
[8] = system: IGROV1 ovarian
[9] = system: M14 melanoma
[10] = system: RPMI-8226 leukemia
[11] = system: SN12C renal
[12] = system: KM12 colon
[13] = system: OVCAR-4 ovarian
[14] = system: HCT-15 colon
[15] = system: SK-MEL-2 melanoma
[16] = system: HCC-2998 colon
[17] = system: NCI-H522 lung
[18] = system: DMS 114 small cell lung
[19] = system: SNB-78 CNS
[20] = system: P388 leukemia

Row | Compound | TGI [1] [µM] | TGI [2] [µM] | TGI [3] [µM] | TGI [4] [µM] | TGI [5] [µM] | TGI [6] [µM] | TGI [7] [µM] | TGI [8] [µM] | TGI [9] [µM] | TGI [10] [µM] | TGI [11] [µM] | TGI [12] [µM] | TGI [13] [µM] | TGI [14] [µM] | TGI [15] [µM] | TGI [16] [µM] | TGI [17] [µM] | TGI [18] [µM] | TGI [19] [µM] | TGI [20] [µM]
1 | CCSc1nc(N)c2c(-c3ccccc3)c3c(nc2n1)CCC3 | > 100 | > 100 | > 100 | > 100 | > 100 | > 100 | > 100 | > 100 | > 100 | > 100 | > 100 | > 100 | > 100 | > 100 | – | – | – | – | – | –
2 | CC(=O)O[C@H]1[C@@H](OC(C)=O)C(C)(C)/C=C/[C@H](C)C(=O)[C@@]2(OC(C)=O)C[C@@](C)(OC(C)=O)[C@H](OC(C)=O)[C@@H]2[C@H]2OC(=O)CC[C@@]2(OC(=O)c2ccccc2)[C@@H]1OCC(C)C | > 100 | > 100 | > 100 | 66.2 | > 100 | > 100 | > 100 | > 100 | > 100 | – | > 100 | > 100 | > 100 | > 100 | > 100 | > 100 | > 100 | – | – | –
3 | NC1(C(=O)O)CCCC1 | – | > 625 | > 625 | > 625 | > 370 | > 625 | – | > 625 | – | > 625 | > 625 | > 625 | > 625 | > 625 | > 625 | > 625 | > 625 | > 625 | > 444 | > 625
4 | CSCCC(NC(=O)OCc1ccccc1)NC(=O)OCc1ccccc1 | > 100 | – | – | > 100 | – | – | > 100 | > 100 | > 100 | > 100 | > 100 | – | > 100 | > 100 | > 100 | > 100 | > 100 | – | – | –
5 | COc1ccc(Oc2nc(C#CC(C)(C)O)nc(Oc3ccc(OC)cc3)n2)cc1 | 17 | 2.85 | 3.15 | 31.3 | 28.5 | 4.36 | 21.6 | 18.9 | 4.24 | – | 28.1 | 29.2 | – | 2.95 | 22.8 | – | 9.36 | – | – | –
